Laboratory results: the NIST ThermoML archive (doi:10.1021/acs.jced.8b00554)

Experiment: xn = mol fraction of the nth substance listed
Conditions: Liquid, Vibrating tube method

CCCCCCCCC [nonane] + CCCO
mass density [kg/m3]
Conditions	343.15 K	353.15 K
100 kPa, x2 = 0.1231	–	666.99
100 kPa, x2 = 0.2315	–	669.25
100 kPa, x2 = 0.3229	–	671.68
100 kPa, x2 = 0.4272	–	676.17
100 kPa, x2 = 0.7021	–	697.1
100 kPa, x2 = 0.8941	–	723.67
1000 kPa, x2 = 0.3229	–	672.91
1000 kPa, x2 = 0.4272	–	677.15
1000 kPa, x2 = 0.7021	–	697.4
1010 kPa, x2 = 0.1231	677.59	667.83
1010 kPa, x2 = 0.2315	–	670.69
1010 kPa, x2 = 0.4272	689.57	–
1010 kPa, x2 = 0.7021	711.27	–
1010 kPa, x2 = 0.8941	737.45	724.26
1020 kPa, x2 = 0.3229	684.46	–
2000 kPa, x2 = 0.1231	–	668.99
2000 kPa, x2 = 0.2315	–	671.87
2000 kPa, x2 = 0.3229	685.59	–
2010 kPa, x2 = 0.1231	678.71	–
2010 kPa, x2 = 0.2315	682.42	–
2010 kPa, x2 = 0.4272	690.68	678.31
2010 kPa, x2 = 0.7021	712.38	698.58
2010 kPa, x2 = 0.8941	738.5	–
2020 kPa, x2 = 0.3229	–	674.1
2020 kPa, x2 = 0.8941	–	725.38
3000 kPa, x2 = 0.3229	686.69	–
3000 kPa, x2 = 0.4272	691.79	–
3000 kPa, x2 = 0.7021	713.46	–
3010 kPa, x2 = 0.1231	679.8	–
3010 kPa, x2 = 0.2315	–	673.01
3010 kPa, x2 = 0.3229	–	675.25
3010 kPa, x2 = 0.4272	–	679.49
3010 kPa, x2 = 0.7021	–	699.75
3010 kPa, x2 = 0.8941	739.56	726.49
3020 kPa, x2 = 0.1231	–	670.15
3020 kPa, x2 = 0.2315	683.53	–
4000 kPa, x2 = 0.4272	–	680.67
4010 kPa, x2 = 0.1231	–	671.29
4010 kPa, x2 = 0.2315	684.63	–
4010 kPa, x2 = 0.3229	687.78	676.42
4010 kPa, x2 = 0.7021	714.57	700.94
4010 kPa, x2 = 0.8941	–	727.63
4020 kPa, x2 = 0.1231	680.88	–
4020 kPa, x2 = 0.2315	–	674.2
4020 kPa, x2 = 0.4272	692.9	–
4020 kPa, x2 = 0.8941	740.61	–
5000 kPa, x2 = 0.1231	681.97	–
5000 kPa, x2 = 0.4272	–	681.83
5000 kPa, x2 = 0.7021	715.67	–
5010 kPa, x2 = 0.1231	–	672.43
5010 kPa, x2 = 0.2315	–	675.32
5010 kPa, x2 = 0.3229	688.88	–
5010 kPa, x2 = 0.4272	694	–
5010 kPa, x2 = 0.7021	–	702.12
5010 kPa, x2 = 0.8941	741.67	728.78
5020 kPa, x2 = 0.2315	685.69	–
5020 kPa, x2 = 0.3229	–	677.57
6000 kPa, x2 = 0.1231	–	673.56
6000 kPa, x2 = 0.4272	–	683.02
6010 kPa, x2 = 0.1231	683.04	–
6010 kPa, x2 = 0.2315	–	676.43
6010 kPa, x2 = 0.3229	689.97	678.73
6010 kPa, x2 = 0.4272	695.09	–
6010 kPa, x2 = 0.7021	716.75	703.28
6010 kPa, x2 = 0.8941	–	729.91
6020 kPa, x2 = 0.2315	686.75	–
6020 kPa, x2 = 0.8941	742.73	–
7000 kPa, x2 = 0.2315	–	677.57
7000 kPa, x2 = 0.3229	691.04	–
7000 kPa, x2 = 0.8941	743.78	–
7010 kPa, x2 = 0.2315	687.82	–
7010 kPa, x2 = 0.3229	–	679.88
7010 kPa, x2 = 0.4272	696.18	–
7010 kPa, x2 = 0.8941	–	731.05
7020 kPa, x2 = 0.1231	684.1	674.7
7020 kPa, x2 = 0.4272	–	684.19
7020 kPa, x2 = 0.7021	717.84	704.46
8000 kPa, x2 = 0.2315	688.91	–
8000 kPa, x2 = 0.3229	–	681.03
8000 kPa, x2 = 0.7021	–	705.61
8000 kPa, x2 = 0.8941	744.82	–
8010 kPa, x2 = 0.1231	–	675.84
8010 kPa, x2 = 0.3229	692.11	–
8010 kPa, x2 = 0.4272	697.28	685.36
8010 kPa, x2 = 0.8941	–	732.17
8020 kPa, x2 = 0.1231	685.16	–
8020 kPa, x2 = 0.2315	–	678.73
8020 kPa, x2 = 0.7021	718.92	–
9000 kPa, x2 = 0.1231	–	676.94
9000 kPa, x2 = 0.2315	–	679.85
9010 kPa, x2 = 0.1231	686.2	–
9010 kPa, x2 = 0.2315	689.96	–
9010 kPa, x2 = 0.3229	693.2	682.18
9010 kPa, x2 = 0.4272	–	686.5
9010 kPa, x2 = 0.7021	–	706.79
9010 kPa, x2 = 0.8941	745.86	733.3
9020 kPa, x2 = 0.4272	698.35	–
9020 kPa, x2 = 0.7021	720.01	–
10000 kPa, x2 = 0.2315	690.99	680.95
10000 kPa, x2 = 0.4272	–	687.67
10000 kPa, x2 = 0.7021	721.05	–
10000 kPa, x2 = 0.8941	746.88	–
10010 kPa, x2 = 0.1231	687.25	678.03
10010 kPa, x2 = 0.3229	694.26	683.34
10010 kPa, x2 = 0.7021	–	707.93
10010 kPa, x2 = 0.8941	–	734.42
10020 kPa, x2 = 0.4272	699.44	–
11000 kPa, x2 = 0.3229	695.31	–
11000 kPa, x2 = 0.4272	700.47	–
11010 kPa, x2 = 0.1231	688.29	–
11010 kPa, x2 = 0.7021	722.11	–
11020 kPa, x2 = 0.2315	692.04	–
11020 kPa, x2 = 0.8941	747.91	–
12000 kPa, x2 = 0.3229	696.36	–
12010 kPa, x2 = 0.1231	689.31	–
12010 kPa, x2 = 0.2315	693.08	–
12010 kPa, x2 = 0.4272	701.53	–
12010 kPa, x2 = 0.8941	748.9	–
12020 kPa, x2 = 0.7021	723.13	–
13010 kPa, x2 = 0.4272	702.56	–
13010 kPa, x2 = 0.8941	749.87	–
13020 kPa, x2 = 0.1231	690.32	–
13020 kPa, x2 = 0.2315	694.1	–
13020 kPa, x2 = 0.3229	697.39	–
13020 kPa, x2 = 0.7021	724.18	–
14000 kPa, x2 = 0.1231	691.3	–
14000 kPa, x2 = 0.3229	698.41	–
14000 kPa, x2 = 0.8941	750.86	–
14010 kPa, x2 = 0.2315	695.1	–
14010 kPa, x2 = 0.7021	725.19	–
14020 kPa, x2 = 0.4272	703.57	–
15010 kPa, x2 = 0.1231	692.28	–
15010 kPa, x2 = 0.4272	704.56	–
15010 kPa, x2 = 0.7021	726.16	–
15010 kPa, x2 = 0.8941	751.83	–
15020 kPa, x2 = 0.2315	696.09	–
15020 kPa, x2 = 0.3229	699.39	–
16000 kPa, x2 = 0.8941	752.78	–
16010 kPa, x2 = 0.1231	693.22	–
16010 kPa, x2 = 0.7021	727.16	–
16020 kPa, x2 = 0.2315	697.06	–
16020 kPa, x2 = 0.3229	700.38	–
16020 kPa, x2 = 0.4272	705.54	–
17000 kPa, x2 = 0.1231	694.17	–
17000 kPa, x2 = 0.3229	701.35	–
17000 kPa, x2 = 0.4272	706.5	–
17010 kPa, x2 = 0.7021	728.12	–
17020 kPa, x2 = 0.2315	698.04	–
17020 kPa, x2 = 0.8941	753.71	–
18010 kPa, x2 = 0.1231	695.1	–
18010 kPa, x2 = 0.2315	698.96	–
18010 kPa, x2 = 0.7021	729.04	–
18020 kPa, x2 = 0.3229	702.27	–
18020 kPa, x2 = 0.4272	707.45	–
18020 kPa, x2 = 0.8941	754.62	–
19000 kPa, x2 = 0.2315	699.84	–
19000 kPa, x2 = 0.3229	703.2	–
19000 kPa, x2 = 0.7021	729.96	–
19000 kPa, x2 = 0.8941	755.52	–
19010 kPa, x2 = 0.1231	695.98	–
19010 kPa, x2 = 0.4272	708.36	–
20000 kPa, x2 = 0.4272	709.29	–
20010 kPa, x2 = 0.1231	696.86	–
20010 kPa, x2 = 0.2315	700.72	–
20010 kPa, x2 = 0.3229	704.07	–
20010 kPa, x2 = 0.7021	730.88	–
20020 kPa, x2 = 0.8941	756.41	–
